Measurements as given in ChEMBL document CHEMBL4813981, “Synthesis and in vitro antibacterial activity of new aminothiazole-oximepiperidone cephalosporins” (2021).
≈ marks a conversion by molar mass, not a printed value.

Experiments:
Format in all cases: functional
[1] = tested on: Klebsiella aerogenes; assay: Antibacterial activity against Enterobacter aerogenes 15-7 assessed as reduction in bacterial growth
[2] = tested on: Klebsiella pneumoniae; assay: Antibacterial activity against Carbapenem- resistant Klebsiella pneumoniae KR 15-5 assessed as reduction in bacterial growth
[3] = tested on: Escherichia coli; assay: Antibacterial activity against ESBLs positive Carbapenem-sensitive Escherichia coli 17-15 assessed as reduction in bacterial growth
[4] = tested on: Klebsiella pneumoniae; assay: Antibacterial activity against Carbapenem- sensitive Klebsiella pneumoniae 17-3 overexpressing extended spectrum beta-lactamases assessed as reduction in bacterial growth
[5] = tested on: Acinetobacter baumannii; assay: Antibacterial activity against Carbapenem- resistant Acinetobacter baumannii 17-9 assessed as reduction in bacterial growth
[6] = tested on: Escherichia coli; assay: Antibacterial activity against ESBLs positive Carbapenem-sensitive Escherichia coli 17-22 assessed as reduction in bacterial growth
[7] = tested on: Escherichia coli; assay: Antibacterial activity against Escherichia coli ATCC 25922 assessed as reduction in bacterial growth
[8] = tested on: Klebsiella pneumoniae; assay: Antibacterial activity against Carbapenem- resistant Klebsiella pneumoniae KR 15-7 assessed as reduction in bacterial growth
[9] = tested on: Escherichia coli; assay: Antibacterial activity against ESBLs positive Carbapenem-sensitive Escherichia coli 17-10 assessed as reduction in bacterial growth
[10] = tested on: Klebsiella pneumoniae; assay: Antibacterial activity against Carbapenem- sensitive Klebsiella pneumoniae 17-4 overexpressing extended spectrum beta-lactamases assessed as reduction in bacterial growth
[11] = tested on: Acinetobacter baumannii; assay: Antibacterial activity against Carbapenem- resistant Acinetobacter baumannii 17-6 assessed as reduction in bacterial growth
[12] = tested on: Enterobacter cloacae; assay: Antibacterial activity against Enterobacter cloacae 17-8 assessed as reduction in bacterial growth
[13] = tested on: Enterobacter cloacae; assay: Antibacterial activity against Enterobacter cloacae 17-7 assessed as reduction in bacterial growth
[14] = tested on: Klebsiella pneumoniae; assay: Antibacterial activity against ESBLs negative Carbapenem-sensitive Klebsiella pneumoniae 17-17 assessed as reduction in bacterial growth
[15] = tested on: Klebsiella pneumoniae; assay: Antibacterial activity against Carbapenem- sensitive Klebsiella pneumoniae 17-1 overexpressing extended spectrum beta-lactamases assessed as reduction in bacterial growth
[16] = tested on: Klebsiella pneumoniae; assay: Antibacterial activity against Carbapenem- resistant Klebsiella pneumoniae KR 15-11 assessed as reduction in bacterial growth
[17] = tested on: Escherichia coli; assay: Antibacterial activity against ESBLs negative Carbapenem-sensitive Escherichia coli 17-1 assessed as reduction in bacterial growth
[18] = tested on: Escherichia coli; assay: Antibacterial activity against ESBLs positive Carbapenem-sensitive Escherichia coli 17-11 assessed as reduction in bacterial growth
[19] = tested on: Klebsiella aerogenes; assay: Antibacterial activity against Enterobacter aerogenes 17-1 assessed as reduction in bacterial growth
[20] = tested on: Klebsiella pneumoniae; assay: Antibacterial activity against Carbapenem- resistant Klebsiella pneumoniae KR 15-10 assessed as reduction in bacterial growth
[21] = tested on: Acinetobacter baumannii; assay: Antibacterial activity against Carbapenem- resistant Acinetobacter baumannii 17-11 assessed as reduction in bacterial growth
[22] = tested on: Klebsiella pneumoniae; assay: Antibacterial activity against Carbapenem- sensitive Klebsiella pneumoniae 17-2 overexpressing extended spectrum beta-lactamases assessed as reduction in bacterial growth
[23] = tested on: Acinetobacter baumannii; assay: Antibacterial activity against Carbapenem- resistant Acinetobacter baumannii 17-5 assessed as reduction in bacterial growth
[24] = tested on: Klebsiella aerogenes; assay: Antibacterial activity against Enterobacter aerogenes 15-5 assessed as reduction in bacterial growth
[25] = tested on: Klebsiella pneumoniae; assay: Antibacterial activity against ESBLs negative Carbapenem-sensitive Klebsiella pneumonia 15-2 assessed as reduction in bacterial growth
[26] = tested on: Klebsiella pneumoniae; assay: Antibacterial activity against Carbapenem- resistant Klebsiella pneumoniae KR 15-13 assessed as reduction in bacterial growth
[27] = tested on: Pseudomonas aeruginosa; assay: Antibacterial activity against Carbapenem- sensitive Pseudomonas aeruginosa 17-26 assessed as reduction in bacterial growth
[28] = tested on: Enterobacter cloacae; assay: Antibacterial activity against Enterobacter cloacae 17-3 assessed as reduction in bacterial growth
[29] = tested on: Escherichia coli; assay: Antibacterial activity against ESBLs positive Carbapenem-sensitive Escherichia coli 17-6 assessed as reduction in bacterial growth
[30] = tested on: Pseudomonas aeruginosa; assay: Antibacterial activity against Carbapenem- sensitive Pseudomonas aeruginosa 17-29 assessed as reduction in bacterial growth
[31] = tested on: Klebsiella pneumoniae; assay: Antibacterial activity against ESBLs negative Carbapenem-sensitive Klebsiella pneumoniae 17-16 assessed as reduction in bacterial growth
[32] = tested on: Pseudomonas aeruginosa; assay: Antibacterial activity against Carbapenem- sensitive Pseudomonas aeruginosa 17-24 assessed as reduction in bacterial growth
[33] = tested on: Acinetobacter baumannii; assay: Antibacterial activity against Carbapenem- resistant Acinetobacter baumannii 17-13 assessed as reduction in bacterial growth
[34] = tested on: Escherichia coli; assay: Antibacterial activity against ESBLs positive Carbapenem-sensitive Escherichia coli 17-5 assessed as reduction in bacterial growth
[35] = tested on: Enterobacter cloacae; assay: Antibacterial activity against Enterobacter cloacae 17-5 assessed as reduction in bacterial growth
[36] = tested on: Klebsiella pneumoniae; assay: Antibacterial activity against Carbapenem- resistant Klebsiella pneumoniae KR 15-12 assessed as reduction in bacterial growth
[37] = tested on: Escherichia coli; assay: Antibacterial activity against ESBLs positive Carbapenem-sensitive Escherichia coli 17-3 assessed as reduction in bacterial growth
[38] = tested on: Klebsiella pneumoniae; assay: Antibacterial activity against Carbapenem- sensitive Klebsiella pneumoniae 17-15 overexpressing extended spectrum beta-lactamases assessed as reduction in bacterial growth
[39] = tested on: Klebsiella aerogenes; assay: Antibacterial activity against Enterobacter aerogenes 17-2 assessed as reduction in bacterial growth
[40] = tested on: Enterobacter cloacae; assay: Antibacterial activity against Enterobacter cloacae 17-9 assessed as reduction in bacterial growth
[41] = tested on: Klebsiella pneumoniae; assay: Antibacterial activity against Carbapenem- sensitive Klebsiella pneumoniae 17-13 overexpressing extended spectrum beta-lactamases assessed as reduction in bacterial growth
[42] = tested on: Klebsiella pneumoniae; assay: Antibacterial activity against ESBLs negative Carbapenem-sensitive Klebsiella pneumoniae 17-18 assessed as reduction in bacterial growth
[43] = tested on: Pseudomonas aeruginosa; assay: Antibacterial activity against Carbapenem- sensitive Pseudomonas aeruginosa 17-10 assessed as reduction in bacterial growth
[44] = tested on: Klebsiella pneumoniae; assay: Antibacterial activity against Carbapenem- sensitive Klebsiella pneumoniae 17-5 overexpressing extended spectrum beta-lactamases assessed as reduction in bacterial growth
[45] = tested on: Klebsiella pneumoniae; assay: Antibacterial activity against Carbapenem- resistant Klebsiella pneumoniae KR 15-6 assessed as reduction in bacterial growth
[46] = tested on: Klebsiella pneumoniae; assay: Antibacterial activity against Carbapenem- resistant Klebsiella pneumoniae KR 15-8 assessed as reduction in bacterial growth
[47] = tested on: Acinetobacter baumannii; assay: Antibacterial activity against Carbapenem- resistant Acinetobacter baumannii 17-3 assessed as reduction in bacterial growth
[48] = tested on: Escherichia coli; assay: Antibacterial activity against ESBLs positive Carbapenem-sensitive Escherichia coli 17-12 assessed as reduction in bacterial growth
[49] = tested on: Pseudomonas aeruginosa; assay: Antibacterial activity against Carbapenem- sensitive Pseudomonas aeruginosa 17-22 assessed as reduction in bacterial growth
[50] = tested on: Klebsiella pneumoniae; assay: Antibacterial activity against Carbapenem- sensitive Klebsiella pneumoniae 17-11 overexpressing extended spectrum beta-lactamases assessed as reduction in bacterial growth
[51] = tested on: Klebsiella aerogenes; assay: Antibacterial activity against Enterobacter aerogenes 17-4 assessed as reduction in bacterial growth
[52] = tested on: Klebsiella pneumoniae; assay: Antibacterial activity against Carbapenem- resistant Klebsiella pneumoniae KR 15-4 assessed as reduction in bacterial growth
[53] = tested on: Pseudomonas aeruginosa; assay: Antibacterial activity against Carbapenem- resistant Pseudomonas aeruginosa 17-8 assessed as reduction in bacterial growth
[54] = tested on: Enterobacter cloacae; assay: Antibacterial activity against Enterobacter cloacae 17-4 assessed as reduction in bacterial growth

SMILES: Nc1nc(/C(=N/OCc2cc(=O)c(O)cn2O)C(=O)N[C@@H]2C(=O)N3C(C(=O)O)=CCS[C@H]23)cs1
- MIC [1]: 4 µg/mL (≈ 7.87 µM)
- MIC [2]: > 64 µg/mL
- MIC [3]: > 64 µg/mL
- MIC [4]: > 64 µg/mL
- MIC [5]: > 64 µg/mL
- MIC [6]: > 64 µg/mL
- MIC [7]: 0.5 µg/mL (≈ 0.983 µM)
- MIC [8]: > 64 µg/mL
- MIC [9]: 4 µg/mL (≈ 7.87 µM)
- MIC [10]: > 64 µg/mL
- MIC [11]: > 64 µg/mL
- MIC [12]: 16 µg/mL (≈ 31.5 µM)
- MIC [13]: > 64 µg/mL
- MIC [14]: 0.125 µg/mL (≈ 0.246 µM)
- MIC [15]: 64 µg/mL (≈ 126 µM)
- MIC [16]: > 64 µg/mL
- MIC [17]: 32 µg/mL (≈ 62.9 µM)
- MIC [18]: > 64 µg/mL
- MIC [19]: 32 µg/mL (≈ 62.9 µM)
- MIC [20]: > 64 µg/mL
- MIC [21]: > 64 µg/mL
- MIC [22]: 2 µg/mL (≈ 3.93 µM)
- MIC [23]: > 64 µg/mL
- MIC [24]: 8 µg/mL (≈ 15.7 µM)
- MIC [25]: 0.06 µg/mL (≈ 0.118 µM)
- MIC [26]: > 64 µg/mL
- MIC [27]: 2 µg/mL (≈ 3.93 µM)
- MIC [28]: 64 µg/mL (≈ 126 µM)
- MIC [29]: 32 µg/mL (≈ 62.9 µM)
- MIC [30]: 2 µg/mL (≈ 3.93 µM)
- MIC [31]: 0.5 µg/mL (≈ 0.983 µM)
- MIC [32]: 4 µg/mL (≈ 7.87 µM)
- MIC [33]: > 64 µg/mL
- MIC [34]: 64 µg/mL (≈ 126 µM)
- MIC [35]: 32 µg/mL (≈ 62.9 µM)
- MIC [36]: > 64 µg/mL
- MIC [37]: 2 µg/mL (≈ 3.93 µM)
- MIC [38]: 64 µg/mL (≈ 126 µM)
- MIC [39]: 64 µg/mL (≈ 126 µM)
- MIC [40]: 8 µg/mL (≈ 15.7 µM)
- MIC [41]: 1 µg/mL (≈ 1.97 µM)
- MIC [42]: ≤ 0.03 µg/mL
- MIC [43]: 2 µg/mL (≈ 3.93 µM)
- MIC [44]: 8 µg/mL (≈ 15.7 µM)
- MIC [45]: 16 µg/mL (≈ 31.5 µM)
- MIC [46]: > 64 µg/mL
- MIC [47]: > 64 µg/mL
- MIC [48]: 4 µg/mL (≈ 7.87 µM)
- MIC [49]: 1 µg/mL (≈ 1.97 µM)
- MIC [50]: > 64 µg/mL
- MIC [51]: 8 µg/mL (≈ 15.7 µM)
- MIC [52]: > 64 µg/mL
- MIC [53]: 32 µg/mL (≈ 62.9 µM)
- MIC [54]: 1 µg/mL (≈ 1.97 µM)
